Assay results reported in the supplement of paper PMC10307832.

Columns and labels:
Assay in all cases: relative viability (nuclei count vs DMSO), 5 days (fraction); higher = more cells survive
NCI-H2347 = test system: NCI-H2347
How it was run: (§1)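 Relative viability equals treated-well nuclei counts divided by vehicle-well nuclei counts. Counts came from 4× images of lung cancer cell lines grown in 1536-well plates for 5 days after pin-tool dosing on the day after seeding. Dosing used one drug alone or a fixed anchor-drug dose plus five library-drug doses (not always all listed) in √10 steps, and values are medians of duplicate plates.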

NCI-H520 = test system: NCI-H520
How it was run: as §1

NCI-H1915 = test system: NCI-H1915
How it was run: as §1

COR-L 105 = test system: COR-L 105
How it was run: as §1

RERF-LC-KJ = test system: RERF-LC-KJ
How it was run: as §1

NCI-H23 = test system: NCI-H23
How it was run: as §1

NCI-H661 = test system: NCI-H661
How it was run: as §1

201T = test system: 201T
How it was run: as §1

LCLC-97TM1 = test system: LCLC-97TM1
How it was run: as §1

PC-14 = test system: PC-14
How it was run: as §1

ChaGo-K-1 = test system: ChaGo-K-1
How it was run: as §1

LC-2-ad = test system: LC-2-ad
How it was run: as §1

HCC-827 = test system: HCC-827
How it was run: as §1

NCI-H2405 = test system: NCI-H2405
How it was run: as §1

NCI-H1666 = test system: NCI-H1666
How it was run: as §1

EPLC-272H = test system: EPLC-272H
How it was run: as §1

HCC-78 = test system: HCC-78
How it was run: as §1

NCI-H2126 = test system: NCI-H2126
How it was run: as §1

NCI-H647 = test system: NCI-H647
How it was run: as §1

NCI-H322M = test system: NCI-H322M
How it was run: as §1

H3255 = test system: H3255
How it was run: as §1

NCI-H2087 = test system: NCI-H2087
How it was run: as §1

NCI-H650 = test system: NCI-H650
How it was run: as §1

With Oc1nc(-c2ccc(C(F)(F)F)cc2)nc2c1CSCC2 [XAV939] + N=C(N)NC(=N)NCCc1ccccc1 [Phenformin] (partner 250 µM) the relative viability (NCI-H2347; first compound 0.08 µM) was 0.396, the relative viability (NCI-H2347; first compound 2.53 µM) was 0.338 and the relative viability (NCI-H520; first compound 0.08 µM) was 0.58. For the same compound, the relative viability (NCI-H520; first compound 0.253 µM) was 0.51, the relative viability (NCI-H520; first compound 0.8 µM) was 0.526 and the relative viability (NCI-H520; first compound 2.53 µM) was 0.401. For the same compound, the relative viability (NCI-H1915; first compound 0.08 µM) was 0.384, the relative viability (NCI-H1915; first compound 0.253 µM) was 0.258 and the relative viability (NCI-H1915; first compound 0.8 µM) was 0.377. It also gave a relative viability (NCI-H1915; first compound 2.53 µM) of 0.369, a relative viability (COR-L 105; first compound 0.08 µM) of 0.51 and a relative viability (COR-L 105; first compound 0.253 µM) of 0.492. The relative viability (COR-L 105; first compound 0.8 µM) was 0.434, the relative viability (COR-L 105; first compound 2.53 µM) was 0.381 and the relative viability (RERF-LC-KJ; first compound 0.08 µM) was 0.485. It also gave a relative viability (RERF-LC-KJ; first compound 0.253 µM) of 0.425, a relative viability (RERF-LC-KJ; first compound 0.8 µM) of 0.442 and a relative viability (RERF-LC-KJ; first compound 2.53 µM) of 0.364. The relative viability (NCI-H23; first compound 0.08 µM) was 0.892, the relative viability (NCI-H23; first compound 0.253 µM) was 0.722 and the relative viability (NCI-H23; first compound 0.8 µM) was 0.613. For the same compound, the relative viability (NCI-H23; first compound 2.53 µM) was 0.806, the relative viability (NCI-H661; first compound 0.08 µM) was 0.277 and the relative viability (NCI-H661; first compound 0.253 µM) was 0.272. For the same compound, the relative viability (NCI-H661; first compound 0.8 µM) was 0.281, the relative viability (NCI-H661; first compound 2.53 µM) was 0.267 and the relative viability (201T; first compound 0.08 µM) was 0.475. For the same compound, the relative viability (201T; first compound 0.253 µM) was 0.421, the relative viability (201T; first compound 0.8 µM) was 0.364 and the relative viability (201T; first compound 2.53 µM) was 0.421. The relative viability (LCLC-97TM1; first compound 0.08 µM) was 0.474, the relative viability (LCLC-97TM1; first compound 0.253 µM) was 0.352 and the relative viability (LCLC-97TM1; first compound 0.8 µM) was 0.434. For the same compound, the relative viability (LCLC-97TM1; first compound 2.53 µM) was 0.373, the relative viability (PC-14; first compound 0.08 µM) was 0.69 and the relative viability (PC-14; first compound 0.253 µM) was 0.592. For the same compound, the relative viability (PC-14; first compound 0.8 µM) was 0.629, the relative viability (PC-14; first compound 2.53 µM) was 0.555 and the relative viability (ChaGo-K-1; first compound 0.08 µM) was 0.51. The relative viability (ChaGo-K-1; first compound 0.253 µM) was 0.476, the relative viability (ChaGo-K-1; first compound 0.8 µM) was 0.412 and the relative viability (ChaGo-K-1; first compound 2.53 µM) was 0.409. The relative viability (LC-2-ad; first compound 0.08 µM) was 0.638, the relative viability (LC-2-ad; first compound 0.253 µM) was 0.571 and the relative viability (LC-2-ad; first compound 0.8 µM) was 0.569. The relative viability (LC-2-ad; first compound 2.53 µM) was 0.575, the relative viability (HCC-827; first compound 0.08 µM) was 0.364 and the relative viability (HCC-827; first compound 0.253 µM) was 0.421. For the same compound, the relative viability (HCC-827; first compound 0.8 µM) was 0.452, the relative viability (HCC-827; first compound 2.53 µM) was 0.394 and the relative viability (NCI-H2405; first compound 0.08 µM) was 0.373. The relative viability (NCI-H2405; first compound 0.253 µM) was 0.399, the relative viability (NCI-H2405; first compound 0.8 µM) was 0.363 and the relative viability (NCI-H2405; first compound 2.53 µM) was 0.413. It also gave a relative viability (NCI-H1666; first compound 0.08 µM) of 0.561, a relative viability (NCI-H1666; first compound 0.253 µM) of 0.497 and a relative viability (NCI-H1666; first compound 0.8 µM) of 0.555. The relative viability (NCI-H1666; first compound 2.53 µM) was 0.555, the relative viability (EPLC-272H; first compound 0.08 µM) was 0.311 and the relative viability (EPLC-272H; first compound 0.253 µM) was 0.316. It also gave a relative viability (EPLC-272H; first compound 0.8 µM) of 0.308, a relative viability (EPLC-272H; first compound 2.53 µM) of 0.325 and a relative viability (HCC-78; first compound 0.08 µM) of 0.711. It also gave a relative viability (HCC-78; first compound 0.253 µM) of 0.62, a relative viability (HCC-78; first compound 0.8 µM) of 0.66 and a relative viability (HCC-78; first compound 2.53 µM) of 0.516. The relative viability (NCI-H2126; first compound 0.08 µM) was 0.577, the relative viability (NCI-H2126; first compound 0.253 µM) was 0.494 and the relative viability (NCI-H2126; first compound 0.8 µM) was 0.48. It also gave a relative viability (NCI-H2126; first compound 2.53 µM) of 0.516, a relative viability (NCI-H647; first compound 0.08 µM) of 0.553 and a relative viability (NCI-H647; first compound 0.253 µM) of 0.438. It also gave a relative viability (NCI-H647; first compound 0.8 µM) of 0.61, a relative viability (NCI-H647; first compound 2.53 µM) of 0.28 and a relative viability (NCI-H322M; first compound 0.08 µM) of 0.88. For the same compound, the relative viability (NCI-H322M; first compound 0.253 µM) was 0.716, the relative viability (NCI-H322M; first compound 0.8 µM) was 0.625 and the relative viability (NCI-H322M; first compound 2.53 µM) was 0.578. It also gave a relative viability (H3255; first compound 0.08 µM) of 0.415, a relative viability (H3255; first compound 0.253 µM) of 0.397 and a relative viability (H3255; first compound 0.8 µM) of 0.381. The relative viability (H3255; first compound 2.53 µM) was 0.375, the relative viability (NCI-H2087; first compound 0.08 µM) was 0.6 and the relative viability (NCI-H2087; first compound 0.253 µM) was 0.455. The relative viability (NCI-H2087; first compound 0.8 µM) was 0.433, the relative viability (NCI-H2087; first compound 2.53 µM) was 0.395 and the relative viability (NCI-H650; first compound 0.08 µM) was 0.474. The relative viability (NCI-H650; first compound 0.253 µM) was 0.494, the relative viability (NCI-H650; first compound 0.8 µM) was 0.439 and the relative viability (NCI-H650; first compound 2.53 µM) was 0.414.
